pIC50: −log10 of the molar value. Residues, ends and D or L forms follow the SMILES beside them.
How the values were obtained:
[1] = target: TAP translocator (H-2d-derived microsomes) (Mus musculus, UniProt P21958+P36371); assay: biochemical
mouse microsomes = assay: Efflux of labeled peptide from loaded mouse microsomes; format: biochemical; settings: mouse liver microsomes in the presence of ATP; HPLC; data not shown
[2] = system: mouse TAP1/TAP2 translocator; assay: Accumulation of labeled peptide in mouse liver microsomes; settings: microsomes from TAP1 mutant (C57Bl/6 x 129/SV) mice; means of duplicates

TAP translocator (H-2d-derived microsomes), sequence (P21958 whole entry): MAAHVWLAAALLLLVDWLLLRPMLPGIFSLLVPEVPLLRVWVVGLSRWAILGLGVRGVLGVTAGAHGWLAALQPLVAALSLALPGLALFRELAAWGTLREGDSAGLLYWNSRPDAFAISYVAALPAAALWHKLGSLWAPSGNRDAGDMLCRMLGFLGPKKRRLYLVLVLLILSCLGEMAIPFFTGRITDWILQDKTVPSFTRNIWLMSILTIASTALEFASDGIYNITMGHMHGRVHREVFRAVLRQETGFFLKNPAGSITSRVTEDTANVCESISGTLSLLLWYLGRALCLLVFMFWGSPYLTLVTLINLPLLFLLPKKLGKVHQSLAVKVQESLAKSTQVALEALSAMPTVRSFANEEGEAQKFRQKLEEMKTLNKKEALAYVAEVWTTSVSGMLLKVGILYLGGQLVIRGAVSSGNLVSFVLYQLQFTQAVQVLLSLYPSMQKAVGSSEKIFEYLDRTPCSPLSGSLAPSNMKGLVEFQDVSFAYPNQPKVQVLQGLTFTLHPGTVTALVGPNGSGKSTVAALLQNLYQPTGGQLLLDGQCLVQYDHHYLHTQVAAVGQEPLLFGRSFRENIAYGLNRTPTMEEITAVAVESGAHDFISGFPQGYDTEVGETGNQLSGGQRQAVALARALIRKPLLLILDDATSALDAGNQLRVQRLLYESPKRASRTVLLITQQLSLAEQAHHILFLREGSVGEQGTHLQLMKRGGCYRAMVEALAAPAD
TAP translocator (H-2d-derived microsomes), sequence (P36371 whole entry): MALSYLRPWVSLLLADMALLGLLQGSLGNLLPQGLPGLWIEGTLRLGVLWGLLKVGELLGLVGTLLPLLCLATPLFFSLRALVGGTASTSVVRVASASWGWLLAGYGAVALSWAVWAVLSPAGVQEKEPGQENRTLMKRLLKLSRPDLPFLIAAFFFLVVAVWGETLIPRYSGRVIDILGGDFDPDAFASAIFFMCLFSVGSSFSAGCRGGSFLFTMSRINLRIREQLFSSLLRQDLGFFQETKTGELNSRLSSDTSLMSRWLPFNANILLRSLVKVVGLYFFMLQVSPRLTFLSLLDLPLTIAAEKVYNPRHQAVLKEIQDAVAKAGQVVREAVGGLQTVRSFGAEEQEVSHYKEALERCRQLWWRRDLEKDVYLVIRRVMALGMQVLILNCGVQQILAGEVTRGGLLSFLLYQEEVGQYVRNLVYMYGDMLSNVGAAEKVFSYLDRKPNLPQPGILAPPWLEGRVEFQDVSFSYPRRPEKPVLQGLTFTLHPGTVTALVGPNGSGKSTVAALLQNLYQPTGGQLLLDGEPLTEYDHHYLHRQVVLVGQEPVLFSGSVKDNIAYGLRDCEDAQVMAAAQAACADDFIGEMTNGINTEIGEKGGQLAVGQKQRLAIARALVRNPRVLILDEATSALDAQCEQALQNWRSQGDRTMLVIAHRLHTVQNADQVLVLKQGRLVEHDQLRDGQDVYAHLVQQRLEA

Row | Compound | pIC50 [1] | Integrity of material accumulated by and released from microsomes (mouse microsomes) | Accumulation of labeled peptide in TAP- microsomes [2]
1 | CC(C)C[C@H](NC(=O)[C@H](C)NC(=O)[C@H](CCCNC(=N)N)NC(=O)[C@@H](NC(=O)[C@H](CCCNC(=N)N)NC(=O)[C@H](CCC(N)=O)NC(=O)[C@H](Cc1ccc(O)cc1)NC(=O)[C@@H](N)[C@@H](C)O)[C@@H](C)O)C(=O)N[C@H](C(=O)O)C(C)C (H-TYQRTRALV-OH) | 5.52 | – | –
2 | CC(C)C[C@H](NC(=O)[C@H](C)NC(=O)[C@@H]1CCCN1C(=O)[C@H](Cc1ccc(O)cc1)NC(=O)[C@H](CC(N)=O)NC(=O)CNC(=O)[C@@H]1CCCN1C(=O)[C@H](C)NC(=O)[C@@H](N)Cc1ccccc1)C(N)=O [FAPGNYPAL] | 5.52 | largely intact | –
3 | TYNRTRALI | – | – | do not accumulate
